{"source": "BindingDB's records for doi:10.1021/jm9803626", "about": "(Dupont Pharmaceuticals, 1999)", "target": "T1, Dimer of Gag-Pol polyprotein [489-587] (Human immunodeficiency virus 1, UniProt P04585)", "T1 construct": "489-587", "test": "Protease Inhibition Assay", "procedure": "Inhibition of HIV protease was measured by assay of the cleavage of a fluorescent peptide substrate. The fluorescent product (2-aminobenzoyl-Ala-Thr-His-Gln-Val-Tyr) was separated from the fluorescent substrate by anion-exchange HPLC on a Mono-Q anion-exchange column (Pharmacia), and fluorescence was monitored at an excitation wavelength of 330 nm and an emission wavelength of 430 nm. Ki values for inhibitor binding were estimated at fixed concentrations of substrate and inhibitor from fractional activity measurements by use of the modified Michaelis-Menten equation."}
{"smiles": "N/C(=N\\O)c1cccc(CN2C(=O)N[C@H](CCc3ccccc3)[C@@H](O)[C@H]2Cc2ccccc2)c1", "note": "[(4R,5R,6R)-Tetrahydro-1-(3-(N-hydroxycarboximidamide)phenylmethyl)-6-phenylmethyl-5-hydroxy-4-(2-phenylethyl)-2(1H)-pyrimidinone]", "values": [{"measurement": "Ki", "result": 0.24, "unit": "nM"}]}
{"smiles": "O=C1N[C@H](CCc2ccccc2)[C@@H](O)[C@@H](Cc2ccccc2)N1Cc1ccccc1", "note": "[(4R,5S,6R)-Tetrahydro-1,6-bis-(phenylmethyl)-5-hydroxy-4-(2-phenylethyl)-2(1H)-pyrimidinone]", "values": [{"measurement": "Ki", "result": 66, "unit": "nM"}]}
